Measurements from PubChem BioAssay AID504875 (The Scripps Research Institute Molecular Screening Center, 2011).
The source made the active and inactive calls. How the calls were made is not given here.

Tested on: cell viability, ATP luminescence (cytotoxicity counter-screen)
Experiment: cytotoxicity of S1P4 agonist candidates, late-stage follow-up, cytotoxicity control for S1P4 agonist project, cell-based, luminescence, dose response, set 2, assay provider (AID 504875)

SMILES: COCCN=C1S/C(=C\c2cc(C)n(-c3ccc(F)cc3F)c2C)C(=O)N1C
- CC50: > 10 µM (inactive)
